{"source": "patent US8017828B2", "about": "“Utilization of rare sugars in plant or microorganism” (Shikoku Research Institute Incorporated, priority 2004, dated 2011)", "key": {"[1]": {"system": "Pythium ultimum IFO 32426 strain", "test": "Oospore formation of Pythium ultimum in sugar solution", "format": "cell-based", "settings": "0.05% (w/v) sugar solution, 23° C., 4 days", "protocol": "With regard to Pythium ultimum that causes damping-off of spinach and the like, an effect of a rare sugar on oospore formation was examined.\nFirst, as the Pythium ultimum, IFO 32426 strain was used, and static culture thereof was carried out with 200 ml of V8 medium at 23° C. for 1 week. The resulting mycelial mat was well washed with sterile water and divided into 16 equal parts with forceps. This mycerial body was disentangled uniformly to form a small piece and immersed in 20 ml of a sugar solution at a concentration of 0.05% (w/v) and let stand at 23° C. for 4 days. […] Further, the same experiment was carried out using Pythium zingiberum IFO 30817 strain."}, "Salsola komarovii": {"system": "Salsola komarovii", "test": "Seed germination, short-time and continuous treatment (Experiment 2)", "format": "in vivo", "settings": "immersed in 1% solution for 24 hours, in the end; DW 28%", "protocol": "In order to clarify an effect of a short-time treatment, 50 seeds of Salsola komarovii, tomato (Home Momotaro) and sunny lettuce (Red Wave), and 20 seeds of morning glory (Tairin Zaki Kongo) were immersed in any of deionized water, 1% D-psicose, 1% D-allose and 1% L-galactose for 24 hours (25° C., dark), respectively, then, they were lightly washed with deionized water. Then, the seeds were sown in a dish with a diameter of 9 cm having a filter paper placed therein, and germinated under the same condition by poring 5 to 10 ml of deionized water therein. Further, for the comparison, a continuous treatment with 1% D-psicose was carried out in accordance with the same procedure."}, "[2]": {"system": "Aspergillus niger, Cladosporium cladosporioides and Penicillium chrysogenum", "test": "Mycelial elongation of filamentous fungi on agar with rare sugar", "format": "cell-based", "settings": "0.05% (w/v) in agar medium, 25° C., 4 days", "protocol": "By using as targets, Aspergillus niger, Cladosporium cladosporioides and Penicillium chrysogenum, which are typical filamentous fungi and generally seen in a living environment, an effect of a rare sugar on mycelial elongation was examined.\nAs the test fungal strains, NBRC 4066 strain, NBRC 4459 strain and NBRC 4626 strain were used.\nEach test fungal strain was cultured on a potato dextrose agar medium at 25° C. for 7 days, and one in which the mycelium extended over the surface of the dish was pushed out along with the agar medium in such a manner that the agar medium was in a disc form with a diameter of 1.1 cm, which was placed at the center of a dish filled with an agar medium (1% Bacto agar) supplemented with any of a variety of rare sugars (allitol, D-altrose, L-mannose, L-galactose, D-tagatose, D-sorbose, D-psicose, D-allose, D-glucose and D-fructose) at 0.05% (w/v) and cultured at 25° C. for 4 days. After the cultivation, the length of the mycelium extending on the surface of the culture medium was measured. Two culture media were prepared for each test plot, and the mycelial length represents the average thereof."}, "[3]": {"system": "Brassica rapa var. amplexicaulis (variety: “Haru Ichiban”)", "test": "Foliar spraying of sugar on Brassica rapa var. amplexicaulis", "format": "in vivo", "settings": "0.5% solution sprayed", "text": "Brassica rapa var. amplexicaulis is a vegetable in the Brassica family, and flower buds are harvested and used. As the same species of vegetables, broccoli, cauliflower and the like are exemplified, which are important horticultural crops. As for such a vegetable, development of flower buds has a large effect on the crop yield. Therefore, during the house cultivation of Brassica rapa var. amplexicaulis (variety: “Haru Ichiban”), foliar spraying of a sugar solution at a concentration of 0.5% (w/v) was carried out and effects on the growth and the development of flower buds were examined. The seeds of Brassica rapa var. amplexicaulis were sown in a 128-cell tray on Oct. 23, 2003 and raised for about 20 days. Then, the raised seedlings were transplanted for permanent planting with a planting distance of 40 cm on two rows with an inter row space of 50 cm in separate beds filled with soil for cultivation “Hana to Yasai no Tsuchi (garden soil for flowers and vegetables)” (Kurokawa Shubyo En) on Nov. 12, 2003. The cultivation was carried out by a simple fertigation system, and irrigation was carried out for 1 hour on a daily basis with a 2,000-fold dilution of Hyponex through an irrigation tube. The cultivation was carried out in a vinyl house without heating with side windows open. From Dec. 18, 2003, water or a 0.5% (w/v) sugar solution was sprayed onto the whole plant on a three times weekly basis. As for the types of sugars, D-glucose, D-fructose and D-psicose were used and five plants were cultivated for each test plot. On Feb. 23, 2004, three plants of medium size were harvested and a survey was carried out. The survey items were plant length, stem diameter, number of lateral buds, terminal bud weight, total weight of lateral buds and the like."}, "[4]": {"system": "cherry tomato plant “mini carol”", "test": "Hydroponic growth of cherry tomato with 0.05 or 0.5 mM sugar, 10 days", "format": "in vivo", "settings": "0.5 mM", "protocol": "Subsequently, a cherry tomato plant “mini carol” was transplanted for permanent planting to a hydroponic apparatus, and a total of 7 treated plots in which a plot without addition (control plot) was added to 6 treated plots with the use of a nutrient solution supplemented with 0.05 mM or 0.5 mM D-psicose, D-fructose or mannitol were prepared. A survey was carried out with regard to the growth at 10 days after the permanent planting. […] The stem diameter was the smallest in the case of 0.5 mM D-psicose. The number of leaves was the smallest in the case of 0.5 mM D-psicose and 0.5 mM mannitol. The root length was the smallest in the case of 0.5 mM psicose."}, "[5]": {"system": "Fusarium oxysporum, Glomerella cingulata, Verticillium dahliae and Botrytlis cinerea", "test": "Mycelial elongation of plant pathogenic bacteria on agar with rare sugar", "format": "cell-based", "settings": "0.05% (w/v) in agar medium, 23° C., 7 days", "protocol": "By using as targets, Fusarium oxysporum, Glomerella cingulata, Verticillium dahliae and Botrytlis cinerea, which are typical plant pathogenic bacteria, an effect of a rare sugar on mycelial elongation was examined.\nAs the test bacterial strains, IFO 31213 strain, IFO 6425 strain, IFO 9765 strain and IFO 9760 strain were used.\nAfter the cultivation, the length of the extending mycelium was measured."}, "[6]": {"system": "Arabidopsis thaliana Lan dsberg erecta (LER)", "test": "Germination of Arabidopsis thaliana with 8 ketoses", "format": "in vivo", "settings": "100 mM aqueous solution", "protocol": "An effect of 8 types of ketoses on germination of Arabidopsis thaliana LER series which was an experimental plant was examined.\nTwo sheets of filter paper were placed in a dish with a diameter of 3.5 cm, and 30 seeds of Arabidopsis thaliana Lan dsberg erecta (LER) were sown per dish, and 0.5 mL of a treatment liquid was poured therein. Then, the dishes were placed in an environment control chamber under the condition of a constant temperature of 25° C. and 24-hour day length (fluorescent lamp, 70 μmol/m^2/s). After the sowing, a survey was carried out with regard to the number of seeds that germinated at 24-hour interval. As the treatment liquid, 100 mM, 10 mM and 1 mM aqueous solutions of any of D-fructose, D-psicose, D-tagatose, D-sorbose, L-fructose, L-psicose, L-tagatose and L-sorbose, and distilled water were used. The procedure was repeated three times for the respective treatment liquids."}, "chitinase gene": {"system": "chitinase gene", "test": "Northern blotting of chitinase gene expression in sprayed cut leaves of rough lemon", "format": "in vivo", "settings": "0.5 mM sprayed on cut leaves, 2 to 48 hours", "protocol": "Cut leaves of rough lemon were treated by spraying each of 0.5 mM L-psicose, L- & D-tagatose and D-sorbose thereon and were let stand for 2, 4, 6, 12, 24 and 48 hours at 24° C. under the dark condition in a moist chamber. Then, from the treated leaves, total RNA was extracted and the expression of genes of lipoxygenase and chitinase was analyzed by Northern blotting. The assays and analyses were repeated at least 3 times in all the treated plots, and equivalent results were obtained."}, "[7]": {"system": "Fusarium oxysporum (IFO 31213 strain)", "format": "in vivo, tomato plant (variety: “House Momotaro”)", "protocol": "By using a tomato plant and a strain of Fusarium oxysporum, which is a typical pathogenic bacterium of tomato, an effect of D-psicose during infection in a stage of raising seedlings thereof was examined.\nTo be more specific, seeds of a tomato plant (variety: “House Momotaro”) were subjected to an immersion treatment by immersing them in a 0.01% (w/v) D-psicose solution or a 0.007% (w/v) probenazole solution for 15 minutes while stirring slowly, followed by air-drying on sterile gauze, and then used as treated seeds. In the medium culture for raising seedlings (pete:pearlite:vermiculite=2:1:1), 0.01% (w/v) D-psicose or 0.007% (w/v) probenazole was mixed, and the soil was placed in black polypot plant containers with a diameter of 9 cm, and then, 4 seeds of the above treated seeds were sown in each pot. The seeds (20 seeds in total) were sown in 5 pots for each test plot. After sowing, the pots were placed in a growth chamber at 23° C. and 5,000 Lux (12-hour day length), and raising of seedlings was initiated. At 1 month and 2 months after the initiation of raising of seedlings, a suspension of mycelium of Fusarium oxysporum (IFO 31213 strain) was inoculated around the roots, whereby infection with Fusarium oxysporum was caused. After the inoculation of Fusarium oxysporum, the temperature was raised to 30° C., and cultivation was continued. At about 4 months after sowing, a survey was carried out with regard to the survival rate of plants, the conditions of browning of vascular bundles and roots, the stem diameter and the like."}}, "data": [{"smiles": "O=C[C@@H](O)[C@H](O)[C@H](O)[C@@H](O)CO", "note": "[L-galactose]", "values": [{"measurement": "oospore formation", "setting": "[1]", "value": "inhibited"}, {"measurement": "germination rate", "setting": "Salsola komarovii", "value": 34, "unit": "%"}, {"measurement": "effect on mycelial elongation", "setting": "[2]", "value": "have an effect of inhibiting mycelial elongation"}, {"measurement": "Terminal bud weight", "setting": "[3]; control (water) 3.0", "value": 9.6, "unit": "g"}, {"measurement": "Stem diameter", "setting": "[3]; control (water) 22.8", "value": 21.7, "unit": "mm"}, {"measurement": "Number of lateral buds", "setting": "[3]; control (water) 32.3", "value": 48.3}, {"measurement": "Plant length", "setting": "[3]; control (water) 49.3", "value": 52.7, "unit": "cm"}, {"measurement": "Total weight of lateral buds", "setting": "[3]; control (water) 235.3", "value": 250.6, "unit": "g"}]}, {"smiles": "OC[C@@H](O)[C@@H](O)[C@H](O)[C@H](O)CO", "note": "[mannitol, reference compound]", "values": [{"measurement": "number of leaves, rank among 7 treated plots", "setting": "[4]", "value": "the smallest"}]}, {"smiles": "O=C[C@@H](O)[C@H](O)[C@H](O)[C@H](O)CO", "note": "[D-altrose]", "values": [{"measurement": "inhibitory effect on mycelial elongation", "setting": "[5]", "value": "the highest inhibitory effect"}, {"measurement": "effect on mycelial elongation", "setting": "[2]", "value": "have an effect of inhibiting mycelial elongation"}]}, {"smiles": "O=C(CO)[C@@H](O)[C@@H](O)[C@@H](O)CO", "note": "[L-psicose]", "values": [{"measurement": "inhibition of germination", "setting": "[6]", "value": "not clearly observed"}]}, {"smiles": "O=C(CO)[C@@H](O)[C@@H](O)[C@H](O)CO", "note": "[D-tagatose]", "values": [{"measurement": "induction of the expression of chitinase gene", "setting": "chitinase gene", "value": "more strongly than D-psicose"}]}, {"smiles": "C=CCOC1=NS(=O)(=O)c2ccccc21", "note": "[probenazole, reference compound]", "values": [{"measurement": "Vascular bundle browning ratio", "setting": "[7]; seed immersion (0.01% D-psicose or 0.007% probenazole), no seed treatment 25%", "value": 5, "unit": "%"}, {"measurement": "Stem diameter", "setting": "[7]; seed immersion treatment", "value": "increased"}]}]}
